Source: patent publication US20230219939A1, “N-(1-CYANO-PYRROLIDIN-3-YL)-5-(3-(TRIFLUOROMETHYL)PHENYL)OXAZOLE-2-CARBOXAMIDE DERIVATIVES AND THE CORRESPONDING OXADIAZOLE DERIVATIVES AS USP30 INHIBITORS FOR THE TREATMENT OF MITOCHONDRIAL DYSFUNCTION” (MISSION THERAPEUTICS LIMITED, priority 2020, published 2023)
Values joined by “and” are separate entries in the source; they are usually repeats but may differ in a detail not shown here. Identical values can stand only once. Like-named read-outs stand apart in the source and are kept apart here.

Assays:
[1] = test system: P-glycoprotein (human MDR1); test: MDR1-MDCK flux assay; assay type: in vitro ADME, Canine; conditions: dog, read-out: MDR1-MDCK Effective efflux ratio
Source text: The treatment of CNS disorders, including Alzheimer's disease, Parkinson's disease, and other disorders described herein, requires drug molecules to target the brain, which requires adequate penetration of the blood brain barrier. […] The probability that a compound can cross the blood brain barrier may be measured by an in vitro flux assay utilizing a MDR1-MDCK cell monolayer (Madin-Darby Canine Kidney cells transfected with MDR-1 resulting in overexpression of the human efflux transporter P-glycoprotein). Additionally, exposure may also be measured directly in brain and plasma using in vivo animal models.
MDR1-MDCK (Madin-Darby Canine Kidney cell monolayer) (in vitro) flux assay.

[2] = target: T1, Cathepsin K (Homo sapiens, UniProt P43235); test: Cathepsin K IC50; assay type: biochemical
T1 sequence (P43235 115-329): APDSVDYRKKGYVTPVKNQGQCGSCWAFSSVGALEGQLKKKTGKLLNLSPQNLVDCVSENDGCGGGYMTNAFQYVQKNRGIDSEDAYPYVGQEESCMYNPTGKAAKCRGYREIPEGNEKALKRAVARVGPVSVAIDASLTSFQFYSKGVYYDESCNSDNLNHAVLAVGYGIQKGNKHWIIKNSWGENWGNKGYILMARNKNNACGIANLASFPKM

[3] = target: Cathepsin S (Homo sapiens, UniProt P25774); test: Cathepsin S IC50; assay type: biochemical
Chain of Cathepsin S (P25774 115-331, species assumed): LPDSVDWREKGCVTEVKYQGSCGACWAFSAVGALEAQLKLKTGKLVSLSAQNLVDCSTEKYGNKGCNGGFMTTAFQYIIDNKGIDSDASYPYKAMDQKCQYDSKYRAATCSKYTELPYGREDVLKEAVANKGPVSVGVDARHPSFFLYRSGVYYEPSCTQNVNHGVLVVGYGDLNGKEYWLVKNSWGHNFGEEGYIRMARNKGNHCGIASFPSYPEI

[4] = target: T2, USP30 (Homo sapiens, UniProt Q70CQ3); test: USP30 biochemical IC50 assay (fluorescence polarisation)
T2 construct: purchased Boston Biochem E582
T2 sequence (Q70CQ3 57-517 limits assumed): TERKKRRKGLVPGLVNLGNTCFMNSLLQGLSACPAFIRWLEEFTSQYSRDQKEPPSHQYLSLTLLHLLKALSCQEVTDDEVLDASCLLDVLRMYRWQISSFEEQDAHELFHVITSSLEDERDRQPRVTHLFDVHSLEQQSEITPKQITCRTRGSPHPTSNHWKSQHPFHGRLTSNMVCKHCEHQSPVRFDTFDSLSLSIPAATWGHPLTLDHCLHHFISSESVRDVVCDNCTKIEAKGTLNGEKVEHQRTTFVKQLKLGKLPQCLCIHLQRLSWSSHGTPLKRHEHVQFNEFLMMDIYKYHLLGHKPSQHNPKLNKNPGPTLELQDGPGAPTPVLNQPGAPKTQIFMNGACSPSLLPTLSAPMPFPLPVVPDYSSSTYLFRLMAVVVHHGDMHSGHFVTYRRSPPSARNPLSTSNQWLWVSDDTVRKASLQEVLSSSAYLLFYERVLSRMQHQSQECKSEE
Procedure: Dilution plates were prepared at 21 times the final concentration (2100 μM for a final concentration of 100 μM) in 50% DMSO in a 96-well polypropylene V-bottom plate (Greiner #651201). A typical 8-point dilution series would be 100, 30, 10, 3, 1, 0.3, 0.1, 0.03 μM final. Reactions were performed in duplicate in black 384 well plates (small volume, Greiner 784076) in a final reaction volume of 21 μl. Either 1 μl of 50% DMSO or diluted compound was added to the plate. USP30 (Boston Biochem #E582) was diluted in reaction buffer (40 mM Tris, pH 7.5, 0.005% Tween 20, 0.5 mg/ml BSA, 5 mM beta-mercaptoethanol) to achieve a final assay concentration of 4 nM, and 10 μl of diluted USP30 was added to the compound. Enzyme and compound were incubated for 30 min at room temp. Reactions were initiated by the addition of 50 nM of TAMRA labelled peptide linked to ubiquitin via an iso-peptide bond as fluorescence polarisation substrate. Reactions were read immediately after addition of substrate and following a 2-hour incubation at room temperature. Readings were performed on a Pherastar Plus (BMG Labtech). λ Excitation 540 nm; λ Emission 590 nm.

[5] = PK mouse 10 mg/kg PO; assay type: in vivo
Source text: Oral F: Oral bioavailability.

[6] = FaSSIF solubility; assay type: physicochemical; conditions: pH 6.5, simulated intestinal fluid fasted state
Source text: FaSSIF: simulated intestinal fluid in fasted state measured at pH 6.5.

[7] = Turbidimetric solubility; assay type: physicochemical; conditions: aqueous buffer, kinetic from dmso stock
Source text: Turbidimetric solubility: Test compound solution prepared in DMSO diluted into aqueous buffer.
Turbidimetry is used as the end-point by measuring absorbance at 620 nm.

[8] = Plasma binding, equilibrium dialysis; assay type: in vitro ADME; conditions: mouse plasma; read-out: Binding Mouse Plasma fu, p
Source text: Plasma fu,p: The free fraction of a compound in plasma preparation determined by in vitro equilibrium dialysis. It is understood that only unbound (free) compound is capable of engaging with the target.

[9] = test system: TOM20 ubiquitylation; test: TOM20-ubiquitylation assay; assay type: cell-based, human; conditions: Antimycin A/oligomycin mitophagy trigger
Source text: Human cell lines can be challenged with mitochondrial depolarizing agents (ionophores (eg. CCCP, valinomycin), mitochondrial complex inhibitors (oligomycin, antimycin A)) to induce ubiquitylation of TOM20, which is then further promoted in the presence of USP30 inhibitors. TOM20 ubiquitylation is subsequently assessed through western blotting of the cell lysates, with TOM20 ubiquitylation adduct detection possible due to an 8 kDa molecule weight increase for each molecule of ubiquitin added, resulting in laddering of a TOM20 immunoreactive band. TOM20-ubiquitylation levels can be quantified using chemiluminescence densitometry of laddered immunoreactive bands.

[10] = target: Cathepsin L (Homo sapiens, UniProt P07711); test: Cathepsin L IC50; assay type: biochemical; conditions: read-out: Cathepsin IC50 (μM) Cathepsin L
Chain of Cathepsin L (P07711 114-333, species assumed): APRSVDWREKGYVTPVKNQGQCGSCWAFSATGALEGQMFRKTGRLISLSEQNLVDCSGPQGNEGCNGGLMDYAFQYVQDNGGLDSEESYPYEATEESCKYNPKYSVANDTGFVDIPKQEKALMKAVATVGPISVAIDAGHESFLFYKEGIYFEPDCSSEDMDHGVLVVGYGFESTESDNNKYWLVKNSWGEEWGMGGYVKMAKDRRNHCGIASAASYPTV

[11] = test system: HCT116 human colorectal carcinoma cells; test: In vitro cytotoxicity (Cell Tox), alamarBlue; assay type: cell-based; conditions: HCT-116, 96-hour continual compound exposure
Source text: There is also a need for compounds that have a favourable safety profile, which may be measured by a variety of standard in vitro and in vivo methods. A cell toxicity counter-screen may be used to assay the anti-proliferative/cytotoxic effect in a particular cell line (e.g. HCT116) by fluorometric detection of rezasurin (alamarBlue™) to resofurin in response to mitochondrial activity.
Measured in HCT116 human colorectal carcinoma cells using alamarBlue™ as the assay endpoint. Compound cytotoxicity was measured over a period of 96-hour continual compound exposure.

[12] = target: Cathepsin B (Homo sapiens, UniProt P07858); test: Cathepsin B IC50; assay type: biochemical
[13] = Brain homogenate binding, equilibrium dialysis; assay type: in vitro ADME; conditions: mouse, read-out: Binding Mouse Brain fu, br
Source text: Brain fu,br: The free fraction of a compound in brain homogenate preparation determined by in vitro equilibrium dialysis. It is understood that only unbound (free) compound is capable of engaging with the target.

COC[C@@H]1C[C@@H](NC(=O)c2ncc(-c3cccc(C(F)(F)F)c3)o2)CN1C#N [Example 1, N-((3R,5S)-1-Cyano-5-(methoxymethyl)-pyrrolidin-3-yl)-5-(3-(trifluoromethyl)phenyl)oxazole-2-carboxamide]
efflux ratio [1]: 1.2 | IC50 [2]: 10.2 µM | IC50 [3]: 138 µM | IC50 ([4]; USP30 biochemical IC50 assay, read-out: USP30 IC50): 0.009 µM | IC50 ([4]; read-out: DUB IC50 (μM) USP30): 0.009 µM and 0.004 to 0.033 µM | Unbound plasma Cmax/TOM20-Ub cell potency ([5]; 10 mg/kg PO dose - mouse): 41-fold | bioavailability ([5]; plasma, po, mouse 10 mg/kg, read-out: Oral F (%)): 82% | FaSSIF (μM) measured at pH 6.5 [6]: 200 μM | solubility [7]: > 100 µM | fraction unbound [8]: 0.12 | TOM20-Ub 1.5-fold gain EC1.5x [9]: 0.020 µM | IC50 [10]: 30.4 µM | EC50 [11]: > 30 µM | IC50 [12]: 122 µM | fraction unbound [13]: 0.05
